Laboratory results from US20150290306A1, “COMPOSITIONS AND METHODS FOR DIAGNOSIS AND TREATMENT OF MALIGNANT GLIOMAS” (priority 2012, published 2015).

Test system: PBMCs
Experiment: PBMC culture with candidate peptides for 14 days, IFN-γ and IL-5 in supernatant by ELISA
Format: cell-based, human
Conditions: for IFN-γ/IL-5 ratio (geometric mean): peptide 10 μg/mL
Source text: Measurement of antigen-specific T cell responses in the peripheral blood in humans differs depending on whether responses are high affinity interactions with foreign (viral) epitopes or lower affinity interactions involving recognition of self-antigens. […] Given that T cell responses directed against MAGE and IL-13Rα2 antigens also involve T cells with low affinity to these self-antigens, antigen-specific responses were quantified based on cytokine secretion, as recently described in a phase I study of patients with MS (Viglietta V, et al: Neurology 2008, 71(12):917-924). Cytokine production was quantified by ELISA, defining a positive T cell response for each patient as the amounts of IFN-γ or IL-5 that were >50 pg/mL and two standard deviations above the mean cytokine levels secreted after stimulation of cells from that patient with negative control MBP peptide.
Twenty-five mL of blood from patients or healthy subjects was obtained under an IRB-approved protocol. All samples of blood from patients were taken at the time of surgery. […] All tumor-bearing patients received similar doses of steroids and anti-epileptic medications at the time of tumor debulking surgery prior to obtaining peripheral blood for these studies. T cell responses in patients with meningiomas controlled for influences of steroids on antigen responsiveness and cytokine balance. Tumor tissue was independently confirmed in all cases by formal pathological analysis. PBMCs were purified from heparinized blood by density gradient centrifugation using Ficoll-Hypaque (GE Healthcare Biosciences), and cells were then washed with PBS and viable cells quantified by trypan-blue staining.
Freshly isolated PBMCs were plated at 2×10^5 cells/well in 200 μl of serum-free X-VIVO15 (X15) media (Lonza) in 96-well round-bottom cell culture plates. Candidate peptides, in addition to a negative control peptide derived from MBP were added at a concentration of 10 μg/mL and anti-CD3 mAb was added at a concentration of 1 μg/mL. Six T cell cultures were established for each condition in each subject, and 100 IU/ml of IL-2 was added on the following day. Plates were incubated at 37° C. and 5% CO2 for 14 days, with media changed as needed, and the supernatant was harvested to evaluate T cell responses (cytokines) induced by each condition using ELISA. In a limited number (n=3) of patients, cytokine production was assessed after both 7 and 14 days. […] An IFN-γ ELISPOT assay was performed as previously described (Lv H, Havari E, et al: J Clin Invest, 121(4):1561-1573).
To detect T helper cell responses directed against the candidate peptides, IFN-γ and IL-5 were measured by ELISA using commercially available kits supplied by BD bioscience. IFN-γ was used as a prototypic Th1 cytokine and IL-5 was chosen as a prototypic cytokine released by Th2 cells because unlike IL-4 there would be no potential consumption by antigen-specific T cells in the culture conditions (Kourilsky P, Truffa-Bachi P: Trends Immunol 2001, 22(9):502-509).

Sequence	positive wells among 6 primary T cell responses (IFN-γ or IL-5 ELISA) (Healthy Subject 2)	positive wells among 6 primary T cell responses (IFN-γ or IL-5 ELISA) (Healthy Subject 4)	positive wells among 6 primary T cell responses (IFN-γ or IL-5 ELISA) (Healthy Subject 5)	positive wells among 6 primary T cell responses (IFN-γ or IL-5 ELISA) (Healthy Subject 6)	positive wells among 6 primary T cell responses (IFN-γ or IL-5 ELISA) (Meningioma 6)	positive wells among 6 primary T cell responses (IFN-γ or IL-5 ELISA) (Primary GBM 1)	positive wells among 6 primary T cell responses (IFN-γ or IL-5 ELISA) (Primary GBM 2)	positive wells among 6 primary T cell responses (IFN-γ or IL-5 ELISA) (Primary GBM 3)	positive wells among 6 primary T cell responses (IFN-γ or IL-5 ELISA) (Primary GBM 5)	positive wells among 6 primary T cell responses (IFN-γ or IL-5 ELISA) (Primary GBM 6)	positive wells among 6 primary T cell responses (IFN-γ or IL-5 ELISA) (Primary GBM 7)	positive wells among 6 primary T cell responses (IFN-γ or IL-5 ELISA) (Primary GBM 8)	positive wells among 6 primary T cell responses (IFN-γ or IL-5 ELISA) (Recurrent GBM 1)	IFN-γ/IL-5 ratio (geometric mean) (healthy subjects)	IFN-γ/IL-5 ratio (geometric mean) (patients with primary GBMs)	IFN-γ/IL-5 ratio (geometric mean) (patients with recurrent GBMs)	positive wells among 6 primary T cell responses (IFN-γ or IL-5 ELISA) (Healthy Subject 1)	positive wells among 6 primary T cell responses (IFN-γ or IL-5 ELISA) (Healthy Subject 3)	positive wells among 6 primary T cell responses (IFN-γ or IL-5 ELISA) (Primary GBM 4)	positive wells among 6 primary T cell responses (IFN-γ or IL-5 ELISA) (Recurrent GBM 3)	further results
LLRFWLPFGFILILV [IL-13Ra2341-355]	+ (+/++ cell=1-2 positive wells)	+ (+/++ cell=1-2 positive wells)	++++ (+++/++++ cell=3-4 positive wells)	+ (+/++ cell=1-2 positive wells)	+ (+/++ cell=1-2 positive wells)	+ (+/++ cell=1-2 positive wells)	++ (+/++ cell=1-2 positive wells)	+++++ (+++++/++++++ cell=5-6 positive wells)	++ (+/++ cell=1-2 positive wells)	++ (+/++ cell=1-2 positive wells)	+++ (+++/++++ cell=3-4 positive wells)	++++ (+++/++++ cell=3-4 positive wells)	++ (+/++ cell=1-2 positive wells)	1.6	0.3	0.02					positive wells among 6 primary T cell responses (IFN-γ or IL-5 ELISA) (Meningioma 5): ++ (+/++ cell=1-2 positive wells)
KVDELAHFLLRKYRAK [MAGE-A3112-127]		++ (+/++ cell=1-2 positive wells)	+ (+/++ cell=1-2 positive wells)		+ (+/++ cell=1-2 positive wells)		++ (+/++ cell=1-2 positive wells)	++ (+/++ cell=1-2 positive wells)	+++++ (+++++/++++++ cell=5-6 positive wells)	++ (+/++ cell=1-2 positive wells)	+++ (+++/++++ cell=3-4 positive wells)	++++ (+++/++++ cell=3-4 positive wells)	+ (+/++ cell=1-2 positive wells)	4.9	0.2	0.04	+++ (+++/++++ cell=3-4 positive wells)	++ (+/++ cell=1-2 positive wells)	+ (+/++ cell=1-2 positive wells)	++ (+/++ cell=1-2 positive wells)	positive wells among 6 primary T cell responses (IFN-γ or IL-5 ELISA) (Meningioma 5): +++ (+++/++++ cell=3-4 positive wells); positive wells among 6 primary T cell responses (IFN-γ or IL-5 ELISA) (Recurrent GBM 2): + (+/++ cell=1-2 positive wells); positive wells among 6 primary T cell responses (IFN-γ or IL-5 ELISA) (Recurrent GBM 4): ++ (+/++ cell=1-2 positive wells); positive wells among 6 primary T cell responses (IFN-γ or IL-5 ELISA) (Recurrent GBM 5): + (+/++ cell=1-2 positive wells)
WQYFFPVIFSKASSSLQL [MAGE-A3143-160]	+++ (+++/++++ cell=3-4 positive wells)	+++++ (+++++/++++++ cell=5-6 positive wells)	++ (+/++ cell=1-2 positive wells)	+ (+/++ cell=1-2 positive wells)	+ (+/++ cell=1-2 positive wells)	++++ (+++/++++ cell=3-4 positive wells)	+++ (+++/++++ cell=3-4 positive wells)	+ (+/++ cell=1-2 positive wells)	+ (+/++ cell=1-2 positive wells)	+ (+/++ cell=1-2 positive wells)	++ (+/++ cell=1-2 positive wells)	+++++ (+++++/++++++ cell=5-6 positive wells)	+ (+/++ cell=1-2 positive wells)	4.3	0.3	0.4	+++ (+++/++++ cell=3-4 positive wells)	+ (+/++ cell=1-2 positive wells)	+ (+/++ cell=1-2 positive wells)	+ (+/++ cell=1-2 positive wells)	positive wells among 6 primary T cell responses (IFN-γ or IL-5 ELISA) (Meningioma 4): + (+/++ cell=1-2 positive wells); positive wells among 6 primary T cell responses (IFN-γ or IL-5 ELISA) (Meningioma 7): + (+/++ cell=1-2 positive wells); IFN-γ/IL-5 ratio, recurrent GBM patients compared to primary GBM patients (P<0.05): significantly lower; positive wells among 6 primary T cell responses (IFN-γ or IL-5 ELISA) (Recurrent GBM 4): + (+/++ cell=1-2 positive wells)
LRKYRAKELVTKAEML [MAGE-A3121-136]	+ (+/++ cell=1-2 positive wells)	+ (+/++ cell=1-2 positive wells)	+ (+/++ cell=1-2 positive wells)	+ (+/++ cell=1-2 positive wells)	+ (+/++ cell=1-2 positive wells)	++ (+/++ cell=1-2 positive wells)	++ (+/++ cell=1-2 positive wells)	++++ (+++/++++ cell=3-4 positive wells)	++++ (+++/++++ cell=3-4 positive wells)	++ (+/++ cell=1-2 positive wells)	++++ (+++/++++ cell=3-4 positive wells)	++ (+/++ cell=1-2 positive wells)	++ (+/++ cell=1-2 positive wells)	8.1	0.1	0.06	+++ (+++/++++ cell=3-4 positive wells)	+++ (+++/++++ cell=3-4 positive wells)	++ (+/++ cell=1-2 positive wells)	+ (+/++ cell=1-2 positive wells)	positive wells among 6 primary T cell responses (IFN-γ or IL-5 ELISA) (Meningioma 1): + (+/++ cell=1-2 positive wells); positive wells among 6 primary T cell responses (IFN-γ or IL-5 ELISA) (Meningioma 2): +++ (+++/++++ cell=3-4 positive wells); positive wells among 6 primary T cell responses (IFN-γ or IL-5 ELISA) (Recurrent GBM 4): + (+/++ cell=1-2 positive wells); positive wells among 6 primary T cell responses (IFN-γ or IL-5 ELISA) (Recurrent GBM 5): + (+/++ cell=1-2 positive wells)
